Measurements reported in patent US9005644B2, “Pesticidal compositions” (BASF Corporation, priority 2008, dated 2015).
Several values for one entry are separate records, joined by “and”; a condition that tells them apart may be missing. Identical values can stand only once.

Legend:
[1] = tested on: German cockroaches; assay: Topical toxicity evaluation on adult German cockroaches, mortality (dead/moribund) at 24 hours; type: in vivo, Blattella germanica (German cockroach)
Description: Toxicity evaluations were performed on 7-14 day old adult male and female German cockroaches (SCJ Strain, S.C. Johnson & Son, Racine, Wis.). Approximately 12 cockroaches were transferred to individual 100×20 mm polystyrene Petri dishes and anesthetized with a 15-25 second exposure to carbon dioxide. The inside edge of each Petri dish was lightly coated with mineral oil plus petroleum jelly in a 1:3 (wt/wt) ratio to minimize escape. Anesthetized cockroaches were positioned with their ventral side up, and a 1 μl drop of the diluted test composition was applied to the area between the meso- and metathoracic legs using a Rainin L-10, 10 μl capacity pipette (Rainin Instrument, LLC, Oakland, Calif.). Five replications of 12 male cockroaches were done for each test composition. Separate tests were done using female cockroaches. Results were evaluated at 24 hours following treatment. Cockroaches were scored as either alive (dorsal side up, active movement when abdomen prodded with dissecting probe) or moribund/dead (dorsal side up and no movement when abdomen prodded or ventral side up and insect unable to right itself).
The compositions comprising alcohol and/or mineral oil are described in Table 13.

[2] = tested on: cockroaches; assay: LD50 and LD10 determination for cockroaches (dose-response mortality, probit analysis); type: in vivo; details: for LD10 mg/insect / LD50 mg/insect: cockroaches, probit analysis
Description: In this example, various mineral oils and alcohols were tested to determine, for cockroaches, the LD50 and LD10 for each.
PD23 and PD28 mineral oils were obtained from Sonneborn LLC, Mahwah, N.J. The physical properties of these oils are shown in Table 11. Each mineral oil was tested to determine the LD50 and LD10 (Table 12).
The tested alcohols were obtained from Sigma-Aldrich Corp., St. Louis, Mo. Each alcohol was tested to determine the LD50 and LD10 (Table 12).

[3] = Table 14, composite data, amounts in label
[4] = Table 18, Exxsol D95 mineral oil, amounts in label

## CCCO [Composition 1-propanol, 1-propanol]
[1]; Table 13, per replicate (# treated 10-16), amounts in label, listed as 1-propanol (0.45 mg)
  # dead at 24 h: 1 and 0 (2×)
[1]; Table 13, per replicate, amounts in label, listed as 1-propanol (0.45 mg)
  Proportion dead at 24 h: 0.083 and 0.000 (2×)
[1]; [3]
  # dead at 24 h: 1
  Proportion dead at 24 h: 0.028
[1]; [4]
  # dead at 24 h: 1
  Proportion dead at 24 h: 0.028
[1]; alone and in combination with Exxsol D95 mineral oil
  synergy with EXXSOL D95: significant synergy
[2]; as detailed in Example 9
  LD10: 0.472 mg/insect
[2]
  LD10 mg/insect: 0.472 mg/insect
  LD50 mg/insect: 0.557 mg/insect

## CCCCO [Composition 1-butanol, 1-butanol]
[1]; Table 13, per replicate (# treated 10-16), amounts in label, listed as 1-butanol (0.8 mg)
  # dead at 24 h: 0 (2×) and 1
[1]; Table 13, per replicate, amounts in label, listed as 1-butanol (0.8 mg)
  Proportion dead at 24 h: 0.000 (2×) and 0.100
[1]; [3]
  # dead at 24 h: 1
  Proportion dead at 24 h: 0.029
[2]
  LD10 mg/insect: 0.877 mg/insect
  LD50 mg/insect: 1.018 mg/insect

## CCC(C)O (stereo not drawn) [Composition 2-butanol, 2-butanol]
[1]; Table 13, per replicate (# treated 10-16), amounts in label, listed as 2-butanol (0.8 mg)
  # dead at 24 h: 0 (2×) and 1
[1]; Table 13, per replicate, amounts in label, listed as 2-butanol (0.8 mg)
  Proportion dead at 24 h: 0.000 (2×) and 0.083
[1]; [3]
  # dead at 24 h: 1
  Proportion dead at 24 h: 0.026
[2]
  LD10 mg/insect: 0.881 mg/insect
  LD50 mg/insect: 1.188 mg/insect

## O=C1CCCO1 [gamma butyrolactone]
[1]; topical, compound 0.25 mg (PD23 0.40 mg in combinations), 24 h
  Proportion dead at 24 hr: 0.300 and 0.500
[1]; topical, compound 0.25 mg per cockroach (PD23 0.40 mg in combinations), 24 h, count of # treated
  # dead at 24 h: 5

## CC(C)O [Isopropyl alcohol]
[1]; Table 13, per replicate (# treated 10-16), amounts in label
  # dead at 24 h: 0
[1]; Table 13, per replicate, amounts in label
  Proportion dead at 24 h: 0.000
[1]; [3]
  # dead at 24 h: 0
  Proportion dead at 24 h: 0.000

## Hexanes
[1]; topical, compound 0.80 mg (PD23 0.40 mg in combinations), 24 h
  Proportion dead at 24 hr: 0.100
[1]; topical, compound 0.80 mg (PD23 0.40 mg in combinations), 24 h, count of # treated
  # dead at 24 h: 1
